Assay results taken from ChEMBL document CHEMBL1142515, “Synthesis and evaluation of structurally constrained quinazolinone derivatives as potent and selective histamine H3 receptor inverse agonists” (J Med Chem, 2008).

Columns and labels:
Histamine H3 receptor = Histamine H3 receptor (Homo sapiens, UniProt Q9Y5N1); assay: Antagonist activity at human cloned histamine H3 receptor expressed in CHO-K1 cells assessed as inhibition of R-alpha-methylhistamine-induced [35S]GTPgammaS binding; format: functional, cell-based
Histamine H3 receptor, sequence (Q9Y5N1 whole entry): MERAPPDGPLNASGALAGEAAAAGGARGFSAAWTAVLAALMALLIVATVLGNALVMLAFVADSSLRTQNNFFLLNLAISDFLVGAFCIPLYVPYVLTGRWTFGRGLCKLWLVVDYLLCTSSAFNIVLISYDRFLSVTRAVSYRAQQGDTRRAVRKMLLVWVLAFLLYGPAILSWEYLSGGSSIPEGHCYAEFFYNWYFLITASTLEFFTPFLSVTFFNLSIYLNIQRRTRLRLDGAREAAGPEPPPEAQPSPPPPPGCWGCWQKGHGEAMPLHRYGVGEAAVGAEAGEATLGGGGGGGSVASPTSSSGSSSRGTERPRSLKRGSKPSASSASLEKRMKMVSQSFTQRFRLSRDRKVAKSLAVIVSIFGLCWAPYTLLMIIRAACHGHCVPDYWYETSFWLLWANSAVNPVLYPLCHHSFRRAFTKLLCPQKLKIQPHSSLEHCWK

[1] = biological target: Voltage-gated inwardly rectifying potassium channel KCNH2 (Homo sapiens, UniProt Q12809); assay: Antagonist activity at human ERG in HEK293 cells assessed as inhibition of [35S]N-[(4R)-1'-[(2R)-6-cyano-1,2,3,4-tetrahydro-2-naphthalenyl]-3,4-dihydro-4-hydroxyspiro[2H-1-benzopyran-2,4'-piperidin]-6-yl]methanesulfonamide binding
Voltage-gated inwardly rectifying potassium channel KCNH2, sequence (Q12809 whole entry): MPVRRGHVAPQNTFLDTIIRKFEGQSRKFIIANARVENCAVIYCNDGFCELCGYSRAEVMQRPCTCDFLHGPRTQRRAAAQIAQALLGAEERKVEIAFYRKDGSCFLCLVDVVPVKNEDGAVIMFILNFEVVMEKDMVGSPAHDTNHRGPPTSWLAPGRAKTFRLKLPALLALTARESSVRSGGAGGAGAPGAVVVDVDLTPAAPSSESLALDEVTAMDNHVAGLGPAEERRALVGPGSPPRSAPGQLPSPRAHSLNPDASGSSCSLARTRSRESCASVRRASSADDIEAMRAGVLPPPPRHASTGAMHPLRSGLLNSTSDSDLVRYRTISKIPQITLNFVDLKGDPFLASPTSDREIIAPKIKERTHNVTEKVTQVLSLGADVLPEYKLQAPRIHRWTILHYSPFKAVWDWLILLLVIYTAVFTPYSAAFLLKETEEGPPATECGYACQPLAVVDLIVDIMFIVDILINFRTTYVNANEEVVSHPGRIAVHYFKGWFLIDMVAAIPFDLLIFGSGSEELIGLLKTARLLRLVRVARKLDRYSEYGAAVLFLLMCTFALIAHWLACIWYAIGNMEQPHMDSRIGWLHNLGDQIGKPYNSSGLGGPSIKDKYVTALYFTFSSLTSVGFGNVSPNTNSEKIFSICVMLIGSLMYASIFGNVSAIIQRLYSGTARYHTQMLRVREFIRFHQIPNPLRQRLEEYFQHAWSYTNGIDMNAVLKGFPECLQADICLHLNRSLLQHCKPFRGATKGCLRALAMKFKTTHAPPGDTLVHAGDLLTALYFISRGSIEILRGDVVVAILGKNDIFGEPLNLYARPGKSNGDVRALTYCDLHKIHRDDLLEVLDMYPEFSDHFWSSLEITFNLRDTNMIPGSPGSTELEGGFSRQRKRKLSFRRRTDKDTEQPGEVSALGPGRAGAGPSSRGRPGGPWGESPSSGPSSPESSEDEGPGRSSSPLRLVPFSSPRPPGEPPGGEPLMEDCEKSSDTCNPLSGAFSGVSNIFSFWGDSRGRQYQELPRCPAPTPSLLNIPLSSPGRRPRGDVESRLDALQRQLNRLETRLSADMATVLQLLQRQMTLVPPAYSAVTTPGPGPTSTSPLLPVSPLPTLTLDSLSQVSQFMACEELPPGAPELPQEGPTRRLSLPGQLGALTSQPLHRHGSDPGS

Row | Compound | IC50 (Histamine H3 receptor) [nM] | IC50 [1] [nM]
1 | Cc1nc2ccccc2c(=O)n1-c1ccc(OC2CCN(C)CC2)cc1 | 740 | –
2 | CCCCN1CCC(Oc2ccc(-n3c(C)nc4ccccc4c3=O)cc2)CC1 | 91 | –
3 | Cc1nc2ccccc2c(=O)n1-c1ccc(OC2CCNCC2)cc1 | > 1000 | –
4 | Cc1nc2ccccc2c(=O)n1-c1ccc(OC2CCCN(C3CCCC3)CC2)cc1 (stereo not drawn) | 7 | –
5 | Cc1nc2ccccc2c(=O)n1-c1ccc(OC2CCCN(C3CCC3)CC2)cc1 (stereo not drawn) | 10 | 7300
6 | COc1ccc2c(=O)n(-c3ccc(OC4CCN(C5CCC5)CC4)cc3)c(C)nc2c1 | 1.8 | > 10000
7 | Cc1nc2cnccc2c(=O)n1-c1ccc(OC2CCN(C3CCC3)CC2)cc1 | 1.8 | > 10000
8 | Cc1nc2ccccc2c(=O)n1-c1ccc(OC2CCN(C3CCCC3)C2)cc1 (stereo not drawn) | 37 | –
9 | Cc1nc2ccccc2c(=O)n1-c1ccc(OC2CCC(N3CCCC3)C2)cc1 (stereo in doubt; 3b) | 8.6 | 10000
10 | Cc1nc2c(Cl)cccc2c(=O)n1-c1ccc(OC2CCN(C3CCC3)CC2)cc1 | 1.7 | –
11 | Cc1nc2ccncc2c(=O)n1-c1ccc(OC2CCN(C3CCC3)CC2)cc1 | 2 | > 10000
12 | COc1cccc2nc(C)n(-c3ccc(OC4CCN(C5CCC5)CC4)cc3)c(=O)c12 | 1.2 | > 10000
13 | Cc1nc2ccccc2c(=O)n1-c1ccc(OC2CCN(C3CCCCC3)CC2)cc1 | 43 | –
14 | Cc1nc2cccc(Cl)c2c(=O)n1-c1ccc(OC2CCN(C3CCC3)CC2)cc1 | 0.34 | > 10000
15 | Cc1nc2ccccc2c(=O)n1-c1ccc(O[C@H]2CC[C@H](N3CCCC3)CC2)cc1 | 813 | –
16 | Cc1nc2cc(F)c(F)cc2c(=O)n1-c1ccc(OC2CCN(C3CCC3)CC2)cc1 | 0.91 | > 10000
17 | COc1cccc2c(=O)n(-c3ccc(OC4CCN(C5CCC5)CC4)cc3)c(C)nc12 | 4.2 | > 10000
18 | Cc1nc2ccccc2c(=O)n1-c1ccc(OC2CCN(C3CCCC3)CC2)cc1 | 3.2 | > 10000
